Tests used:
NOD mice = test: Lymphocytic infiltration of pancreatic islets (insulitis) in NOD mice, histological scoring; format: in vivo, mouse; conditions: NOD males; for intact / normal islets without infiltration (grade-0 islets), percentage of islets examined: GAD65 peptide in CFA, two i.v. injections of 40 nanomoles
Description: To evaluate the disease process by immunohistology (see, e.g., FIG. 12A-D), spleen, pancreas, or other target organs, e.g., the CNS for the MDP peptide BPI, or lung for the RSV peptide BPI, were removed from euthanized mice of each group and prepared for histology by fixing in neutral buffered formalin and embedding in paraffin, or snap frozen in O.C.T. medium. For scoring inflammation, minimums of five sections from each mouse were used to assess the blocking affect of a given BPI. For characterization of standard T-cell markers on cellular infiltrates, biotinylated mAb to various cell surface antigens will be incubated individually with the Cryostat sections (2 hours), followed by avidin-alkaline phosphatase (Vector laboratories). Alternatively, cell subsets will be phenotyped by standard flow cytometry methods as described in Murray et al., 24 Eur. J. Immunol. 2337-2344 (1994); Murray; 19 Immunology Today 157-163; and Schountz et al., 157 The Journal of Immunology 3893-3901 (1996). Finally, the students t-test or ANOVA will be used to estimate the statistical significance of differences observed between groups and individual mice.
These studies sought to confirm that the BPI containing the immunodominant GAD65 TCR epitope (EGAD-BPI) was biologically active in vivo and inhibited the development of pancreatic inflammation. Groups of three normal glycemic NOD males (8 weeks old) were immunized with the GAD65 (208-217) peptide in CFA as described in Example 4. The control group received PBS, and separate experimental groups received either the EGAD-BPI, the GAD peptide alone (i.e., the T-cell receptor epitope), or the CD11a peptide alone(i.e., the second signal receptor moiety) by two intravenous injections as described in Example 4. On day 10, the pancreata were removed to 10% PBS-buffered formalin, embedded in paraffin, and five-micron serial sections were examined histologically for mononuclear cell infiltration as previously described by Yoon, et al., Control of Autoimmune Diabetes in NOD Mice by GAD Expression or Suppression in β Cells, 284 Science 1183-1187 (1999), the entirety of which is hereby incorporated by reference.

[1] = tested on: live APC (spleenocytes) from NOD (I-A^g7), BALB/c, A.SW, A.BY mice; test: Flow cytometry of biotinylated peptide binding to live APC (spleenocytes) of inbred mouse strains; conditions: biotinylated peptide, live spleenocytes, flow cytometry
Protocol: Specifically, it was verified that the peptide binds to MHC molecules on live APC. Briefly, spleen cell density-gradient fractions (from mice), or PBL, or APC lines (from humans) were incubated in round bottom 96-well plates with increasing concentrations of individual biotinylated peptides at 37° C., 5% CO2 for 16 hours. Following binding of the BPI to the APC, Avidin-FITC was incubated with the cells on ice for 30 minutes, followed by biotinylated anti-Avidin for 1 hour, then again with Avidin-FITC. For BPI titrations, increasing concentrations (0.1-100 μM) of the biotinylated derivatives in sterile 0.5% BSA-PBS were incubated with the APC for 16 hours as above. […] Three-color analyses used Cy-Chrome or PE-conjugated antibodies to known surface markers of APC that were commercially available. Avidin-FITC and biotinylated anti-Avidin detection of the bound peptide was as previously described in Murray et al., 24 Eur. J. Immunol. 2337-2344 (1994); Murray; 19 Immunology Today 157-163; and Schountz et al., 157 The Journal of Immunology 3893-3901 (1996). Slight modifications of this method were used to test peptide inhibition (i.e., peptide affinity) and co-capping to the MHC and ICAM molecules directly on the live APC surface. […] Unlabeled peptide was used in a competition assay to derive the relative affinity of the BPI for the APC and the ability of the BPI to crosslink the MHC and ICAM molecules on the APC was examined by cocapping ICAM with an anti-MHC mAb. Here, cells were incubated with the BPI. Next, an anti-MHC mAb was added. After 30 minutes at 37° C., the cells were transferred to ice and stained with PE-labeled anti-ICAM (FIG. 7).
To obtain biotinylated BPI, the synthesized EGAD BPI was biotinylated with NHS-Biotin as described in Murray et al., 24 Eur. J. Immunol. 2337-2344 (1994). Spleen cell density-gradient fractions from normal (unimmunized) NOD, BALB/c and other MHC congenic strains were incubated in round bottom 96-well plates with increasing concentrations of individual biotinylated peptides at 37° C., 5% CO2 for 16 hours. Following binding of the BPI to the APC, Avidin-FITC was incubated with the cells on ice for 30 minutes, followed bybiotinylated anti-Avidin for 1 hour, then again with Avidin-FITC. For BPI titrations, increasing concentrations (0.1-100 μM) of the biotinylated derivatives in sterile 0.5% BSA-PBS were incubated with the APC for 16 hours as above. Three-color analyses used Cy-Chrome or PE-conjugated anti-B220 (mAb RA3-6B2 (CD45R B-cell marker), anti-MHC class II (KH74 or 10-3.62 mAb), or anti-ICAM-1 (3E2 mAb); (all purchased from PharMingen, San Diego, Calif.). Bound peptide was detected with avidin-FITC/biotinylated anti-avidin/avidin-FITC on live cells gated by forward/side scatter analysis. Controls contained all detecting reagents in absence of the biotinylated peptide; 20,000 events were analyzed for each histogram with a FACScan (Becton-Dickinson) flow cytometer.
To verify antigenic peptide binding to live APC, initial EGAD-BPI were screened for selective binding to NOD (I-A^g7) APC and assayed for simultaneous binding using monoclonal antibodies against either MHC-II or ICAM-1 by flow cytometry methods using live APC (Murray et al., 24 Eur. J. Immunol. 2337-2344 (1994); Murray; 19 Immunology Today 157-163; and Schountz et al., 157 The Journal of Immunology 3893-3901 (1996)). In this assay, increasing concentrations of the biotinylated-BPI, -CD11a(237-247) or -GAD65(208-217) peptide were incubated overnight with spleenocytes from each inbred strain. Bound peptide was detected with amplification of avidin-FITC fluorescence by the use of a biotinylated anti-avidin reagent, followed by a second round of avidin-FITC binding. Biotinylated peptide was incubated with 10^6 viable cells at a peptide concentrations of 50 μM. Bound peptide was detected with avidin-FITC/biotinylated anti-avidin-FITC. […]

Sequence | intact / normal islets without infiltration (grade-0 islets), percentage of islets examined (NOD mice; day 10) [%] | mononuclear cell infiltration of islets (insulitis), in words (NOD mice; day 10, histology) | islets scored grade 2 or above (NOD mice; two i.v. injections, day 10) [%] | preferential binding to NOD APC compared with other strains (BALB/c, A.SW, A.BY) [1] | preferential binding to NOD APC compared with other strains (BALB/c, A.SW, A.BY) ([1]; listed as GAD 65 moiety) | preferential binding to NOD APC compared with other strains (BALB/c, A.SW, A.BY) ([1]; listed as LFA-1 (CD11a 237-247) peptide) | preferential binding to NOD APC compared with other strains (BALB/c, A.SW, A.BY) ([1]; listed as LFA-1 moiety)
EIAPVFVLLE (listed as Homo sapiens) [GAD65 peptide, reference compound] | 62 | showed the most insulitis | 37.5 | did not bind preferentially to NOD APC | did not display this increased binding | – | –
ITDGEATDSG (listed as Homo sapiens) [CD11a peptide, Signal-2 moiety (second signal receptor moiety) of EGAD-BPI, tested alone as control] | 66.7 | – | – | did not bind preferentially to NOD APC | – | bound similarly to all strain spleenocytes | did not display this increased binding

Source: patent US7786257B2, “Signal-1/signal-2 bifunctional peptide inhibitors” (priority 2000, dated 2010)
